Twelve compounds from patent publication US10562914B2, “Imidazoles as histone demethylase inhibitors” (Istituto Europeo di Oncologia S.r.l., priority 2016, dated 2020) can be followed below.

For this assay, the target named is T1, human recombinant KDM1A/CoREST protein (Homo sapiens, UniProt O60341).
T1 construct: made in house; host or cells: E. coli
Briefly: Assay of enzyme inhibition of KDM1A (LSD1), TR-FRET. Conditions: 0.25 nM KDM1A/CoREST, 50 nM H3K4 monomethylated peptide, 20 min at RT. It counts as biochemical. How it is done: 2.1 Assay of Enzyme Inhibition of KDM1A (LSD1)
The intensity of the light emission is proportional to the level of biotinylated reaction product. The complex of human recombinant KDM1A/CoREST protein was produced in E. coli as separate proteins and co-purified as previously described.
Demethylase reaction was started by the addition of 50 nM histone H3K4 monomethylated.
The resulting mixture was incubated in the dark for 1 h at RT. Then, TR-FRET signal was read by a fluorimeter (Infinite® F200, Tecan, Männedorf, Swirzerland) (Excitation 320 nm, Emission 665 nm and 620 nm, delay time 50 μs, window time 100 μs).
The inhibitor concentrations ranged from 0.025 to 500 μM (serial 1:3 dilutions). The IC50 was calculated using GraphPad Software.
(TR-FRET usually uses a lanthanide donor and a delayed reading to cut background.)

Where a name gives a salt, the structure may show the parent alone.

As to `Cn1c(-c2nc(-c3ccccc3)cn2CCCc2ccc(OC3CCNCC3)cc2)cc2sccc21` [Example 51, 4-methyl-5-[4-phenyl-1-[3-[4-(4-piperidyloxy)phenyl]propyl]imidazol-2-yl]thieno[3,2-b]pyrrole hydrochloride], the concentration for half-maximal inhibition (IC50) is below 100 nM.
The figure for `CCc1cn(CCCc2ccc(OCC3CCNCC3)c(OCC3CCNCC3)c2)c(-c2cc3sccc3n2C)n1` [Example 52, 5-[1-[3-[3,4-bis(4-piperidylmethoxy)phenyl]propyl]-4-ethyl-imidazol-2-yl]-4-methyl-thieno[3,2-b]pyrrole dihydrochloride] is below 100 nM; for `CCn1c(-c2nc(C3CCC3)c[nH]2)cc2sccc21` [Example 12, 5-(4-cyclobutyl-1H-imidazol-2-yl)-4-ethyl-thieno[3,2-b]pyrrole] it is below 1000 nM; for `CCc1[nH]c(-c2cc3sccc3n2C)nc1-c1ccccc1` [Example 9, 5-(5-ethyl-4-phenyl-1H-imidazol-2-yl)-4-methyl-thieno[3,2-b]pyrrole] it is below 1000 nM.
On to `CCc1cn(CCc2ccc(OC3CCNCC3)cc2)c(-c2cc3sccc3n2C)n1` [Example 58, 5-[4-ethyl-1-[2-[4-(4-piperidyloxy)phenyl]ethyl]imidazol-2-yl]-4-methyl-thieno[3,2-b]pyrrole], for which the IC50 is below 100 nM.
As for `CC(C)c1[nH]c(-c2cc3sccc3n2C)nc1-c1ccccc1` [Example 10, 5-(5-isopropyl-4-phenyl-1H-imidazol-2-yl)-4-methyl-thieno[3,2-b]pyrrole], the figure is below 1000 nM; as for `Cn1c(-c2ncc(C3CCC3)n2CCOc2ccc(OC3CCCNCC3)cc2)cc2sccc21` (stereo not drawn) [Example 37, 5-[1-[2-[4-(azepan-4-yloxy)phenoxy]ethyl]-5-cyclobutyl-imidazol-2-yl]-4-methyl-thieno[3,2-b]pyrrole], below 100 nM; as for `Cn1c(-c2ncc(C3CCC3)n2CCCc2ccc(OCC3CCNC3)cc2)cc2sccc21` (stereo not drawn) [Example 60, 5-[5-cyclobutyl-1-[3-[4-(pyrrolidin-3-ylmethoxy)phenyl]propyl]imidazol-2-yl]-4-methyl-thieno[3,2-b]pyrrole], below 100 nM.
As for `CCc1cn(CCOc2cccc(OC3CCCNCC3)c2)c(-c2cc3sccc3n2C)n1` (stereo not drawn) [Example 34, 5-[1-[2-[3-(azepan-4-yloxy)phenoxy]ethyl]-4-ethyl-imidazol-2-yl]-4-methyl-thieno[3,2-b]pyrrole hydrochloride], the figure is below 100 nM; as for `Cn1c(-c2ncc(C3CCC3)n2CCCc2ccc(OC3CCCNCC3)cc2)cc2sccc21` (stereo not drawn) [Example 62, 5-[1-[3-[4-(azepan-4-yloxy)phenyl]propyl]-5-cyclobutyl-imidazol-2-yl]-4-methyl-thieno[3,2-b]pyrrole hydrochloride], below 100 nM; as for `CCCc1cnc(-c2cc3sccc3n2C)n1CCOc1ccc(OC2CCNCC2)cc1` [Example 54, 4-methyl-5-[1-[2-[4-(4-piperidyloxy)phenoxy]ethyl]-5-propyl-imidazol-2-yl]thieno[3,2-b]pyrrole], below 100 nM.
As for `CCc1cnc(-c2cc3sccc3n2C)n1CCOc1cccc(OC2CCCNCC2)c1` (stereo not drawn) [Example 35, 5-[1-[2-[3-(azepan-4-yloxy)phenoxy]ethyl]-5-ethyl-imidazol-2-yl]-4-methyl-thieno[3,2-b]pyrrole hydrochloride], the figure is below 100 nM.

Usually IC50 stands for the concentration at which inhibition is half-maximal.
